Data set [1] relates to Pkd1^null/null embryonic kidneys. Description: Embryonic kidney organ culture model of PKD (8-Br-cAMP-induced cyst formation, H&E sections). The format is cell-based, mouse. As to conditions: 96 hours of culture. As to the method:
Embryonic mice kidneys of E13.5 were dissected out and cultured in media^29 (1% FBS, 5 mg/ml Transferin, 0.05 mM Sodium Selenite, 100 nM hydrocortisone, 2 nM T3, 25 ng/ml PGE1, 100 U/ml Penicillin/streptomycin, 100 mM 8-Br-cAMP) in Center-Well Organ Culture Dish (BD Labware, Franklin Lakes, N.J.). The following day, the kidneys from the same embryo were treated with either […] Met Kinase Inhibitor (Calbiochem, La Jolla, CA) or DMSO (the same volume with Met Kinase Inhibitor). The media were changed everyday with the same additives as above. After […], kidneys were fixed by 4% PFA, and embedded in paraffin. Paraffin sections were stained with hematoxylin and eosin.
Embryonic mice kidneys of E13.5 were dissected out and cultured in media (1% FBS, 5 mg/ml Transferin, 0.05 mM Sodium Seelenite, 100 nM hydrocortisone, 2 nM T3, 25ng/ml PGE1, 100 U/ml Penicillin/streptomycin, 100 mM 8-Br-cAMP) in Center-Well Organ Culture Dish (BD Labware, Franklin Lakes, N.J.). The following day, the kidneys from the same embryo were treated with either 2 microgram/ml c-MET blocking antibody (R&D Systems, Minneapolis, Minn.) or PBS (the same volume with c-Met blocking antibody). The media were changed everyday with the same additives as above. After 4 days, kidneys were fixed by 4% PFA, and embedded in paraffin. Paraffin sections were stained with hematoxylin and eosin.
E13.5 embryonic kidneys were put in organ culture along with 100 μM 8-Br-cAMP, with or without 5 μM c-MET inhibitor (SU11274, from Calbiochem). (B) E13.5 embryonic kidneys were put in organ culture along with 100 mM 8-Br-cAMP, with or without 5 μg/ml c-MET neutralizing antibody (R&D Systems). (C) E13.5 embryonic kidneys were put in organ culture along with 100 mM 8-Br-cAMP, with or without 0.5 μM c-MET inhibitor (PHA665752, from Tocris, UK). Hematoxylin & Eosin stained sections of kidneys are shown after 96 hours of culture.

The subject of data set [2] is mTOR phosphorylation in Pkd1^null/null cells. Description: mTOR phosphorylation (Western blot phospho-mTOR / total mTOR) in Pkd1 null/null cells. It is filed as cell-based, mouse. As to conditions: c-Met inhibitor 5 mM for 40 min (FIG. 1 legend) / 5 μM, 4 hours (Example 5), FIG. 1a, b. The protocol: Pkd1 wild type (WT) and Pkd1^null/null cell line were isolated from embryonic day 15.5 kidneys from a cross of Pkd1^null/+ mice that also carry a temperature-sensitive simian virus 40 (SV40) large T-antigen transgene, similar with the protocol described in reference 23. Wt and Pkd1^null/null cells were cultured in Dulbecco's modified Eagle medium containing 2% fetal bovine serum, 0.75 μg/L γ-interferon, 1.0 g/L insulin, 0.67 mg/L sodium selenite, 0.55 g/L transferrin, 36 ng/ml hydrocortisone, 100 U/ml Penicillin/streptomycin under 33° C. and 5% CO2^23.
Immunoprecipitation and western-blot were performed using whole cell lysates unless otherwise specified. Confluent cells were collected, washed with PBS, lysed with lysis buffer (20 mM Tris/HCl, 1 mM EDTA, 150 mM NaCl, 1% Triton X-100) containing proteinase inhibitor cocktail tablet (Roche #1697498, Mannheim, Germany) at 4° C. for 30 minutes. After centrifugation at 13,000 rpm for 15 minutes, supernatants were incubated with specific antibody at 4° C. for 1 hour, followed by incubation with Protein G conjugated beads (Pierce Biotechnology, IL) at 4° C. for 2 hours, washed in lysis buffer. Samples were running on 7.5% acrylamide gel, transferred to PVDF membranes and visualized by immunoblotting with respective antibodies. […]

The mark [3] stands for this setting: FIG. 6, Pkd1^null/null kidneys at E15.5, 10 mM 8-Br-cAMP, 5 μM c-MET inhibitor.

The structures appear in SMILES notation. Entries after “also recorded” stand apart in the source; their conditions may differ.

As to `Cc1[nH]c(/C=C2\C(=O)Nc3ccc(S(=O)(=O)N(C)c4cccc(Cl)c4)cc32)c(C)c1C(=O)N1CCN(C)CC1` [SU11274, (3Z)-N-(3-chlorophenyl)-3-({3,5-dimethyl-4-[(4-methylpiperazin-1-yl)carbonyl]-1H-pyrrol-2-yl}methylene)-N-methyl-2-oxoindoline-5-sulfonamide], the cyst formation result in data set [1] (setting [3]) was “reduced cyst formation in organ culture by Pkd1^null/null mutant kidneys to the basal level observed in WT kidneys; also recorded: decreased”; in data set [1] (FIG. 7A, E13.5 Pkd1 null/null kidneys, 100 μM 8-Br-cAMP, 5 μM), “decreased”. Further, in data set [1] (setting [3]), the “size and number of cysts” value is given as “decreased”. Further, the effect on nephrogenesis entry was “no apparent effect” in data set [1] (FIG. 6, wild type and Pkd1^null/null kidneys, 5 μM c-MET inhibitor, listed as c-MET inhibitor); “did not have a marked effect” in data set [1] (FIG. 6, wild type and Pkd1^null/null kidneys, 5 μM c-MET inhibitor, listed as c-Met inhibitor); “no apparent effect” in data set [1] (FIG. 7A, E13.5 kidneys, 100 μM 8-Br-cAMP, 5 μM). Moreover, the mTOR phosphorylation entry is recorded as “inhibited” in data set [2] and “reduced mTOR phosphorylation in Pkd1^null/null cells, to a baseline level observed in WT cells” in data set [2] (listed as Met Kinase Inhibitor).
Consider `Cc1[nH]c(/C=C2\C(=O)Nc3ccc(S(=O)(=O)Cc4c(Cl)cccc4Cl)cc32)c(C)c1C(=O)N1CCC[C@@H]1CN1CCCC1` [PHA665752, (2R)-1-[[5-[(Z)45-[[(2,6-Dichlorophenyl)methyl]sulfony 1]-1,2-dihydro-2-oxo-3H-indo1-3-ylidenelmethyl]-2,4-dimethyl-1H-pyrrol-3-yl]carbonyl]-2-(1-pyrrolidinylmethyl) pyrrolidone], for which, in data set [1] (FIG. 7C, E13.5 Pkd1 null/null kidneys, 100 mM 8-Br-cAMP, 0.5 μM), the cyst formation result is on record as “decreased”. The effect on nephrogenesis result in data set [1] (FIG. 7C, E13.5 kidneys, 100 mM 8-Br-cAMP, 0.5 μM) is “no apparent effect”.

The values are drawn from patent US20110020326A1, “METHOD OF TREATING POLYCYSTIC KIDNEY DISEASE” (CHILDREN'S MEDICAL CENTER CORPORATION, priority 2008, published 2011).
